Results reported in patent US20260001871A1, “TRIAZOLE DERIVATIVES AS MODULATORS OF MAS-RELATED G-PROTEIN RECEPTOR D” (ESCIENT PHARMACEUTICALS, INC., priority 2022, published 2026).

Target: human MRGPRD (Homo sapiens, UniProt Q8TDS7)
Assay: MRGPRD antagonist activity, IP-One HTRF assay in CHO cells stably expressing human MRGPRD (versus 100 μM β-Alanine agonist)
Assay type: cell-based
Description: Chinese Hamster Ovary (CHO) cells stably expressing human MRGPRD (Eurofins, San Diego CA) were plated in a 384-well plate at 20,000 cells per well in 12 μL of Optimem (Fisher Scientific 11-058-021). Plates were kept in the incubator at 37° C. overnight. Antagonists were solubilized at a concentration of 10 mM in DMSO, and the agonists were solubilized to stock concentrations of either 50 mM in H2O (β-Alanine) or 10 mM in DMSO (all others) and then diluted in assay buffer (final concentrations of 5.7 mM Tris-HCl, 43 mM NaCl, 50 mM LiCl, pH=8). The concentration of DMSO was normalized across the plate. Antagonists were added to the plate using a Tecan D300 Digital Dispenser at nanoliter/picoliter volumes and 2 μL of agonists in assay buffer were added to each well for a final assay volume of 14 μL. Plates were covered and incubated for 1 h at 37° C. and then for 1 h at room temperature. IP-1 standards and HTRF detection reagents were added according to an IP-One—Gq Kit purchased from Cisbio (part number 621PAPEJ) and incubated in the dark for 1 h at room temperature. Assay plates were read on either a Molecular Devices SpectraMax iD5 plate reader or a BMG ClarioStar plate reader. The HTRF ratio was calculated form the raw data and graphed using GraphPad Prism to calculate IC50 values. Data are expressed as average IC50 values and average percent antagonism calculated as a percent of the maximum efficacy response. For these studies, the variability of the data was assessed by determining the standard error of mean (SEM).
The activity ranges are denoted as follows: “+++++” denotes antagonist activity<100 nM; “++++” denotes antagonist activity between 100 and 500 nM; “+++” denotes activity between 500 and 1000 nM; “++” denotes activity between 1000 and 3000 nM; and “+” denotes activity>3000 nM.

human MRGPRD, sequence (Q8TDS7 whole entry): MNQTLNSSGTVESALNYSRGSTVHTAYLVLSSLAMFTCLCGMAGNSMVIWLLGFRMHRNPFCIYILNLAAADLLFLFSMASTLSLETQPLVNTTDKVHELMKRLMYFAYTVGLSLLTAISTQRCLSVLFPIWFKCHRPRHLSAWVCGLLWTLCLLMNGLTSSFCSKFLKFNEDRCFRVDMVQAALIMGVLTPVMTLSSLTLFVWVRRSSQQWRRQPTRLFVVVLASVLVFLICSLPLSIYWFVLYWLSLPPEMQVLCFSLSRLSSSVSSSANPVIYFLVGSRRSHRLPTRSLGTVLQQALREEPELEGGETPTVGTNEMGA

Compound	IC50
CCc1cccc(-c2ccc(-n3nnc(C(=O)Nc4ccncc4)c3C3CC3)cc2)c1 [Compound 7-91]	100 to 500 nM
CCn1nccc1-c1ccc(-n2nnc(C(=O)Nc3ccncc3)c2C2CC2)cc1 [Compound 7-92]	100 to 500 nM
CS(=O)(=O)c1ccc(-c2ccc(-n3nnc(C(=O)Nc4ccncc4)c3C3CC3)cc2)cc1 [Compound 7-93]	100 to 500 nM
O=C(Nc1ccncc1)c1nnn(-c2ccc(-c3n[nH]c4c3CCCC4)cc2)c1C1CC1 [Compound 7-94]	100 to 500 nM
Cc1ccc(CNC(=O)c2nnn(-c3ccc(-c4ccc(C#N)cc4C)cc3)c2C2CC2)cn1 [Compound 7-95]	100 to 500 nM
CCn1cc(-c2ccc(-n3nnc(C(=O)Nc4ccncc4)c3C3CC3)cc2)cn1 [Compound 7-97]	100 to 500 nM
O=C(Nc1ccncc1)c1nnn(-c2ccc(-c3n[nH]c4ncccc34)cc2)c1C1CC1 [Compound 7-99]	100 to 500 nM
O=C(Nc1ccncc1)c1nnn(-c2ccc(-c3cccc(Cl)c3)cc2)c1C1CC1 [Compound 7-101]	100 to 500 nM
O=C(Nc1ccncc1)c1nnn(-c2ccc(-c3ccn(-c4ccccc4)n3)cc2)c1C1CC1 [Compound 7-103]	100 to 500 nM
CC(=O)c1ccc(-c2ccc(-n3nnc(C(=O)Nc4ccncc4)c3C3CC3)cc2)cc1F [Compound 7-104]	100 to 500 nM
O=C(Nc1ccncc1)c1nnn(-c2ccc(-c3cnoc3)cc2)c1C1CC1 [Compound 7-105]	100 to 500 nM
CC(C)n1nccc1-c1ccc(-n2nnc(C(=O)Nc3ccncc3)c2C2CC2)cc1 [Compound 7-106]	100 to 500 nM
O=C(Nc1ccncc1)c1nnn(-c2ccc(-c3cccc(CC(F)(F)F)c3)cc2)c1C1CC1 [Compound 7-107]	100 to 500 nM
Cc1ccc(CNC(=O)c2nnn(-c3ccc(-c4cnn(Cc5ccccc5)c4)cc3)c2C2CC2)cn1 [Compound 7-108]	100 to 500 nM
Cn1nc(C2CC2)cc1-c1ccc(-n2nnc(C(=O)Nc3ccncc3)c2C2CC2)cc1 [Compound 7-109]	100 to 500 nM
COc1ccccc1-c1ccc(-n2nnc(C(=O)Nc3ccncc3)c2C2CC2)cc1 [Compound 7-112]	100 to 500 nM
O=C(Nc1ccncc1)c1nnn(-c2ccc(C3=CCOCC3)cc2)c1C1CC1 [Compound 7-114]	500 to 1000 nM
Cc1nc(-c2ccc(-n3nnc(C(=O)Nc4ccncc4)c3C3CC3)cc2)sc1C [Compound 7-115]	500 to 1000 nM
O=C(Nc1ccncc1)c1nnn(-c2ccc(-c3ccnn3C3CCC3)cc2)c1C1CC1 [Compound 7-116]	500 to 1000 nM
Cc1c[nH]nc1-c1ccc(-n2nnc(C(=O)Nc3ccncc3)c2C2CC2)cc1 [Compound 7-119]	500 to 1000 nM

Compound	IC50
Cc1cc(-c2ccc(-n3nnc(C(=O)Nc4ccncc4)c3C3CC3)cc2)c(C)s1 [Compound 7-121]	500 to 1000 nM
Cn1cnc(-c2ccc(-n3nnc(C(=O)Nc4ccncc4)c3C3CC3)cc2)c1 [Compound 7-124]	500 to 1000 nM
Cc1[nH]nc(-c2ccc(-n3nnc(C(=O)Nc4ccncc4)c3C3CC3)cc2)c1Cl [Compound 7-128]	500 to 1000 nM
O=C(Nc1ccncc1)c1nnn(-c2ccc(-c3ccccc3F)cc2)c1C1CC1 [Compound 7-129]	500 to 1000 nM
CC(C)Oc1ccc(-c2ccc(-n3nnc(C(=O)Nc4ccncc4)c3C3CC3)cc2)cc1 [Compound 7-131]	500 to 1000 nM
Cc1cc(-c2ccc(-n3nnc(C(=O)Nc4ccncc4)c3C3CC3)cc2)n(C)n1 [Compound 7-132]	500 to 1000 nM
CC(=O)c1ccccc1-c1ccc(-n2nnc(C(=O)Nc3ccncc3)c2C2CC2)cc1 [Compound 7-134]	500 to 1000 nM
NS(=O)(=O)c1cccc(-c2ccc(-n3nnc(C(=O)Nc4ccncc4)c3C3CC3)cc2)c1 [Compound 7-135]	500 to 1000 nM
O=C(Nc1ccncc1)c1nnn(-c2ccc(-c3cnn(C(F)F)c3)cc2)c1C1CC1 [Compound 7-137]	500 to 1000 nM
COc1cc(-c2ccc(-n3nnc(C(=O)Nc4ccncc4)c3C3CC3)cc2)n[nH]1 [Compound 7-138]	500 to 1000 nM
Cn1ncc(-c2ccc(-n3nnc(C(=O)Nc4ccncc4)c3C3CC3)cc2)c1-c1ccccc1 [Compound 7-144]	500 to 1000 nM
O=C(Nc1ccncc1)c1nnn(-c2ccc(-c3ccccc3Cl)cc2)c1C1CC1 [Compound 7-145]	500 to 1000 nM
CC(=O)c1ccc(-c2ccc(-n3nnc(C(=O)Nc4ccncc4)c3C3CC3)cc2)s1 [Compound 7-147]	500 to 1000 nM
CC(C)Oc1cccc(-c2ccc(-n3nnc(C(=O)Nc4ccncc4)c3C3CC3)cc2)c1 [Compound 7-148]	500 to 1000 nM
O=C(Nc1ccncc1)c1nnn(-c2ccc(-c3ccc(CC4CC4)cc3)cc2)c1C1CC1 [Compound 7-149]	500 to 1000 nM
C#Cc1ccc(-c2ccc(-n3nnc(C(=O)Nc4ccncc4)c3C3CC3)cc2)cc1 [Compound 7-150]	500 to 1000 nM
O=C(Nc1ccncc1)c1nnn(-c2ccc(-c3ccccc3CO)cc2)c1C1CC1 [Compound 7-151]	500 to 1000 nM
O=C(Nc1ccncc1)c1nnn(-c2ccc(-c3cccs3)cc2)c1C1CC1 [Compound 7-152]	500 to 1000 nM
O=C(Nc1ccncc1)c1nnn(-c2ccc(-c3cccc(C(F)(F)F)c3)cc2)c1C1CC1 [Compound 7-155]	500 to 1000 nM
O=C(Nc1ccncc1)c1nnn(-c2ccc(-c3ccnn3-c3ccccc3)cc2)c1C1CC1 [Compound 7-156]	500 to 1000 nM

The remaining lines, values ahead:

IC50	Compound
100 to 500 nM	O=C(Nc1ccncc1)c1nnn(-c2ccc(-c3ccc(Cl)cc3)cc2)c1C1CC1 [Compound 7-90]
100 to 500 nM	Cc1ccccc1-c1ccc(-n2nnc(C(=O)Nc3ccncc3)c2C2CC2)cc1 [Compound 7-96]
100 to 500 nM	CN(C)c1ccc(-c2ccc(-n3nnc(C(=O)Nc4ccncc4)c3C3CC3)cc2)cc1 [Compound 7-98]
100 to 500 nM	Cc1c(-c2ccc(-n3nnc(C(=O)Nc4ccncc4)c3C3CC3)cc2)c(CO)nn1C [Compound 7-100]
100 to 500 nM	Cc1n[nH]c(C)c1-c1ccc(-n2nnc(C(=O)Nc3ccncc3)c2C2CC2)cc1 [Compound 7-102]
100 to 500 nM	Cc1cn(C)nc1-c1ccc(-n2nnc(C(=O)Nc3ccncc3)c2C2CC2)cc1 [Compound 7-110]
100 to 500 nM	Cn1nc(-c2ccc(-n3nnc(C(=O)Nc4ccncc4)c3C3CC3)cc2)cc1-c1ccccc1 [Compound 7-111]
500 to 1000 nM	Cc1cccc(-c2ccc(-n3nnc(C(=O)Nc4ccncc4)c3C3CC3)cc2)c1 [Compound 7-113]
500 to 1000 nM	CC(O)c1cccc(-c2ccc(-n3nnc(C(=O)Nc4ccncc4)c3C3CC3)cc2)c1 (centres unmarked) [Compound 7-117]
500 to 1000 nM	Cc1nn(C(F)F)cc1-c1ccc(-n2nnc(C(=O)Nc3ccncc3)c2C2CC2)cc1 [Compound 7-118]
500 to 1000 nM	Cc1c(-c2ccc(-n3nnc(C(=O)Nc4ccncc4)c3C3CC3)cc2)c(C#N)nn1C [Compound 7-120]
500 to 1000 nM	O=C(Nc1ccncc1)c1nnn(-c2ccc(-c3cccc(C(F)F)c3)cc2)c1C1CC1 [Compound 7-122]
500 to 1000 nM	O=C(Nc1ccncc1)c1nnn(-c2ccc(-c3cnn(CC(F)(F)F)c3)cc2)c1C1CC1 [Compound 7-123]
500 to 1000 nM	O=C(Nc1ccncc1)c1nnn(-c2ccc(-c3ccns3)cc2)c1C1CC1 [Compound 7-125]
500 to 1000 nM	Cn1cc(-c2ccc(-n3nnc(C(=O)Nc4ccncc4)c3C3CC3)cc2)cn1 [Compound 7-126]
500 to 1000 nM	O=C(Nc1ccncc1)c1nnn(-c2ccc(-c3ccc(C4CCC4)cc3)cc2)c1C1CC1 [Compound 7-127]
500 to 1000 nM	O=C(Nc1ccncc1)c1nnn(-c2ccc(-c3n[nH]cc3F)cc2)c1C1CC1 [Compound 7-130]
500 to 1000 nM	Cc1nn(C)c(CO)c1-c1ccc(-n2nnc(C(=O)Nc3ccncc3)c2C2CC2)cc1 [Compound 7-133]
500 to 1000 nM	C#Cc1cccc(-c2ccc(-n3nnc(C(=O)Nc4ccncc4)c3C3CC3)cc2)c1 [Compound 7-136]
500 to 1000 nM	N#Cc1cccc(-c2ccc(-n3nnc(C(=O)Nc4ccncc4)c3C3CC3)cc2)c1 [Compound 7-139]
500 to 1000 nM	Cc1csc(-c2ccc(-n3nnc(C(=O)Nc4ccncc4)c3C3CC3)cc2)n1 [Compound 7-140]
500 to 1000 nM	NS(=O)(=O)c1ccc(-c2ccc(-n3nnc(C(=O)Nc4ccncc4)c3C3CC3)cc2)cc1 [Compound 7-141]
500 to 1000 nM	CC(C)(C)n1cc(-c2ccc(-n3nnc(C(=O)Nc4ccncc4)c3C3CC3)cc2)cn1 [Compound 7-142]
500 to 1000 nM	N#Cc1c[nH]nc1-c1ccc(-n2nnc(C(=O)Nc3ccncc3)c2C2CC2)cc1 [Compound 7-143]
500 to 1000 nM	CN(C)Cc1cccc(-c2ccc(-n3nnc(C(=O)Nc4ccncc4)c3C3CC3)cc2)c1 [Compound 7-146]
500 to 1000 nM	COc1cccc(-c2ccc(-n3nnc(C(=O)Nc4ccncc4)c3C3CC3)cc2)c1 [Compound 7-153]
500 to 1000 nM	N#CCc1ccccc1-c1ccc(-n2nnc(C(=O)Nc3ccncc3)c2C2CC2)cc1 [Compound 7-154]
500 to 1000 nM	CC(C)n1nc(C(F)(F)F)cc1-c1ccc(-n2nnc(C(=O)Nc3ccncc3)c2C2CC2)cc1 [Compound 7-157]
